Assay results from patent publication US9617256B2 (priority 2007, dated 2017).
≈ marks a conversion by molar mass, not a printed value.

Tests used:
APAE001 (ATCC27853) = assay: MIC broth microdilution, APAE001; format: cell-based, P. aeruginosa; settings: Pseudomonas aeruginosa, ATCC27853, read-out: MIC APAE001, APAE001 is ATCC27853
Summary of the method: (§1)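 CLSI-guided microdilution: bacteria passaged overnight at 35° C. on Mueller-Hinton agar, tested in cation-adjusted broth at a final 3×10^5–7×10^5 CFU/mL across 2-fold drug dilutions, read after 18-24 h at 35° C.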

[1] = tested on: APAE006 in the presence of 8 micrograms per milliliter of polymyxin B nonapeptide; format: cell-based, P. aeruginosa; settings: in the presence of 8 micrograms per milliliter of polymyxin B nonapeptide
Summary of the method: (§2)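 Growth inhibition was scored by CLSI broth microdilution using cation-adjusted Mueller-Hinton broth and a final inoculum between 3×10^5 and 7×10^5 CFU/mL, incubated 18-24 hours at 35° C.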

[2] = tested on: AABA1060 (clinical isolate of Acinetobacter baumannii); assay: MIC broth microdilution, AABA1060; format: cell-based; settings: Acinetobacter baumannii, read-out: MIC AABA1060
Summary of the method: as §1

[3] = tested on: ASAU001 (laboratory strain of S. aureus, ATCC29213); assay: MIC broth microdilution, ASAU001; format: cell-based; settings: Staphylococcus aureus, ATCC29213, read-out: MIC ASAU001
Summary of the method: as §1

AECO001 (ATCC25922) = assay: MIC broth microdilution, AECO001; format: cell-based, E. coli; settings: Escherichia coli, ATCC25922, read-out: MIC AECO001
Summary of the method: as §1

[4] = tested on: APAE006 (strain of P. aeruginosa in which all efflux pumps are inactivated); assay: microbe, parasite or virus in culture; format: cell-based; settings: Pseudomonas aeruginosa, read-out: MIC APAE006, P. aeruginosa, all efflux pumps inactivated
Summary of the method: as §2

[5] = tested on: AECO063 (ATCC25922 bearing an acrAB mutation); assay: microbe, parasite or virus in culture; format: cell-based, E. coli; settings: Escherichia coli, ATCC25922, read-out: MIC AECO063
Summary of the method: as §1

AECO001 HSA AGP = assay: MIC broth microdilution, AECO001 HSA AGP; format: cell-based, E. coli; settings: Escherichia coli
Summary of the method: as §1

| Structure (SMILES) | MIC (APAE001 (ATCC27853)) [µg/mL] | MIC APAE006 + PMBN [1] | MIC [2] [µg/mL] | MIC [3] [µg/mL] | MIC (AECO001 (ATCC25922)) [µg/mL] | MIC [4] [µg/mL] | MIC [5] [µg/mL] | MIC (AECO001 HSA AGP) [µg/mL] |
| --- | --- | --- | --- | --- | --- | --- | --- | --- |
| C[C@H](N)[C@H](NC(=O)c1ccc(C#Cc2ccc(CO)cc2)cc1)C(=O)NO [Example 133-4] | < 2 | A (MIC's of 2.0 μg/mL or less = A) | > 64 | > 64 | 2 to 16 (≈ 5.44 to 43.5 µM) | < 2 | < 2 | 16 to 64 (≈ 43.5 to 174 µM) |
| CC(C)[C@H](NC(=O)c1ccc(C#C/C=C/c2ccc(CN3CCOCC3)cc2)cc1)C(=O)NO [Example 96-3] | 2 to 16 (≈ 4.33 to 34.7 µM) | A (MIC's of 2.0 μg/mL or less = A) | 2 to 16 (≈ 4.33 to 34.7 µM) | 16 to 64 (≈ 34.7 to 139 µM) | < 2 | < 2 | < 2 | 2 to 16 (≈ 4.33 to 34.7 µM) |
| CO[C@H](C)[C@H](NC(=O)c1ccc(/C=C/C#Cc2ccc(CNC3CC3)cc2)cc1)C(=O)NO [Example 113-7] | 2 to 16 (≈ 4.47 to 35.8 µM) | A (MIC's of 2.0 μg/mL or less = A) | 2 to 16 (≈ 4.47 to 35.8 µM) | > 64 | < 2 | < 2 | < 2 | 2 to 16 (≈ 4.47 to 35.8 µM) |
| C[C@H](NCC(=O)NC[C@H](NC(=O)c1ccc(C#C/C=C/c2ccccc2)cc1)C(=O)NO)c1ccccc1 [Example 105-2, N—{(S)-1-Hydroxycarbamoyl-2-[2-((S)-1-phenyl-ethylamino)-acetylamino]-ethyl}-4-((E)-4-phenyl-but-3-en-1-ynyl)-benzamide] | 2 to 16 (≈ 3.92 to 31.3 µM) | A (MIC's of 2.0 μg/mL or less = A) | 16 to 64 (≈ 31.3 to 125 µM) | 16 to 64 (≈ 31.3 to 125 µM) | < 2 | < 2 | < 2 | < 2 |
| CC(C)(N)C(NC(=O)c1ccc(C#Cc2ccc(CNC3CC3)cc2)cc1)C(=O)NO (stereo not shown) [Example 137-6] | < 2 | A (MIC's of 2.0 μg/mL or less = A) | 2 to 16 (≈ 4.76 to 38 µM) | 16 to 64 (≈ 38 to 152 µM) | < 2 | < 2 | < 2 | 2 to 16 (≈ 4.76 to 38 µM) |
| CC(C)(N)C(NC(=O)c1ccc(C#Cc2ccc(CNCC(F)F)cc2)cc1)C(=O)NO (stereo not shown) [Example 137-7] | < 2 | A (MIC's of 2.0 μg/mL or less = A) | 2 to 16 (≈ 4.5 to 36 µM) | 16 to 64 (≈ 36 to 144 µM) | < 2 | < 2 | < 2 | 2 to 16 (≈ 4.5 to 36 µM) |
| C[C@@H](N)[C@H](NC(=O)c1ccc(/C=C/C#Cc2ccncc2)cc1)C(=O)NO [Example 114-8] | < 2 | A (MIC's of 2.0 μg/mL or less = A) | 2 to 16 (≈ 5.49 to 43.9 µM) | 16 to 64 (≈ 43.9 to 176 µM) | < 2 | < 2 | < 2 | 2 to 16 (≈ 5.49 to 43.9 µM) |
| C[C@H](N)[C@H](NC(=O)c1ccc(C#Cc2ccc(CNC3CC3)cc2)cc1)C(=O)NO [Example 133-3] | < 2 | A (MIC's of 2.0 μg/mL or less = A) | 16 to 64 (≈ 39.4 to 157 µM) | > 64 | < 2 | < 2 | < 2 | 2 to 16 (≈ 4.92 to 39.4 µM) |
| C[C@@H](O)[C@H](NC(=O)c1ccc(C#C/C=C/c2ccccc2)cc1)C(=O)NO [Example 104-1, N-((1S,2R)-2-Hydroxy-1-hydroxycarbamoyl-propyl)-4-((E)-4-phenyl-but-3-en-1-ynyl)-benzamide] | 2 to 16 (≈ 5.49 to 43.9 µM) | A (MIC's of 2.0 μg/mL or less = A) | 2 to 16 (≈ 5.49 to 43.9 µM) | 16 to 64 (≈ 43.9 to 176 µM) | < 2 | < 2 | < 2 | 2 to 16 (≈ 5.49 to 43.9 µM) |
| C[C@@H](N)[C@H](NC(=O)c1ccc(C#Cc2ccc(CNCCC#N)cc2)cc1)C(=O)NO [Example 118-8] | < 2 | A (MIC's of 2.0 μg/mL or less = A) | 2 to 16 (≈ 4.77 to 38.1 µM) | 16 to 64 (≈ 38.1 to 153 µM) | < 2 | < 2 | < 2 | 2 to 16 (≈ 4.77 to 38.1 µM) |
| C[C@@H](O)[C@H](NC(=O)c1ccc(N2CCN(c3ccc(CN4CCOCC4)cc3)CC2)cc1)C(=O)NO [Example 43-7, N-((1S,2R)-2-Hydroxy-1-hydroxycarbamoyl-propyl)-4-[4-(4-morpholin-4-ylmethyl-phenyl)-piperazin-1-yl]-benzamide] | 16 to 64 (≈ 32.2 to 129 µM) | A (MIC's of 2.0 μg/mL or less = A) | > 64 | > 64 | > 64 | < 2 | 16 to 64 (≈ 32.2 to 129 µM) | > 64 |
